The values below come from ChEMBL document CHEMBL1201862, “PubChem BioAssay data set” (2004).

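Following 48 hours of exposure in 96-well plates, responses at five concentrations were used to interpolate endpoints linearly. The concentration for 50% growth inhibition is given as GI50.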 Active and inactive are the calls of the source. Rule as the data show it: active = GI50 up to about 1.1 µM and inactive = higher.

Common to all, as to assay: NCI-60 cell line screen, 48 h
For test [1], the system named is T47D.
Test [2] deals with HT-29.
Test [3] deals with Hs-578T.
Test [4] relates to RPMI-8226.
In test [5] the test system is HCT-116.
For test [6], the system named is ACHN.
The test system of test [7] is NCI/ADR-RES.
In test [8] the test system is SK-OV-3.
Test [9] has as its system HCT-15.
Test [10] relates to EKVX.
The test system of test [11] is TK-10.
The test system of test [12] is NCI-H23.
Test [13] concerns OVCAR-5.
Test [14] has as its system SF-295.
For test [15], the system named is MOLT-4.
Test [16] concerns A498.
Test [17] relates to NCI-H460.
The test system of test [18] is UACC-62.
Test [19] has as its system IGROV-1.
Test [20] concerns OVCAR-3.

Regarding `CSc1ccc(NC(=O)C2CCCCC2C(=O)O)cc1` (stereo not given), the GI50 in [1], in [2], in [3], in [4], in test [5] and in [6] was > 100 µM (inactive) each time. For the same molecule, the GI50 was > 100 µM (inactive) in test [7]; > 100 µM (inactive) in test [8]; over 100 µM in test [9]; > 100 µM (inactive) in test [10]; > 100 µM (inactive) in [11]; > 100 µM (inactive) in test [12]. In addition, the GI50 in test [13] was > 100 µM (inactive); in [14], > 100 µM (inactive); in [15] it was 38.6 µM (inactive); in [16], > 100 µM (inactive); in [17], > 100 µM (inactive); in test [18], > 100 µM (inactive). For the same molecule, the GI50 in [19] and in [20] was > 100 µM (inactive) each time.
On to `N#CCCN(CCC#N)c1ccc(/C=C2\N=C(c3ccccc3)N(NC(N)=S)C2=O)cc1`, for which the GI50 in [1], in [2], in test [3], in [4], in [5] and in test [6] was > 100 µM (inactive) each time. The GI50 in [7] is > 100 µM (inactive); in test [8], > 100 µM (inactive); in test [9] it was over 100 µM; in test [10] it was > 100 µM (inactive); in test [11], > 100 µM (inactive); in test [13], > 100 µM (inactive). The GI50 in test [14], in [15], in test [16], in test [17], in [18] and in test [19] was > 100 µM (inactive) in each case. The GI50 in test [20] was > 100 µM (inactive).
Turning to `CC(Br)C(=O)c1ccc2cc(Br)c3ccccc3c2c1` (stereo not given), the GI50 in test [1] was 11.9 µM (inactive); in test [2], 17.1 µM (inactive); in test [3], 23.1 µM (inactive); in test [4] it was 4.65 µM (inactive); in [5], 15.2 µM (inactive); in test [6], 17.6 µM (inactive). The GI50 in test [7] was 18 µM (inactive); in test [8], 16.8 µM (inactive); in test [9] it was 16.6 µM; in test [10], 14.4 µM (inactive); in test [11] it was 19 µM (inactive); in [12] it was 16 µM (inactive). For the same molecule, the GI50 in [13] is 17 µM (inactive); in test [14] it was 16.4 µM (inactive); in test [16], 18.7 µM (inactive); in test [17] it was 16 µM (inactive); in test [18] it was 15.4 µM (inactive); in [19] it was 13.1 µM (inactive). Moreover, the GI50 in test [20] was 12.1 µM (inactive).
As for `CCC(C#N)N(Cc1ccc(CN(C(=O)c2ccccc2)C(C#N)CC)cc1)C(=O)c1ccccc1` (stereo not given), the GI50 is 9.02 µM (inactive) in test [1]; 14.7 µM (inactive) in test [2]; 21.5 µM (inactive) in test [3]; 14.5 µM (inactive) in [4]; 17.6 µM (inactive) in [5]; 26.4 µM (inactive) in [6]. Further, the GI50 is 18.2 µM (inactive) in [7]; 23.9 µM (inactive) in [8]; 22.2 µM in [9]; 22.8 µM (inactive) in test [10]; 12.9 µM (inactive) in [11]; 25.7 µM (inactive) in test [12]. Moreover, the GI50 was 37.8 µM (inactive) in test [13]; 17.6 µM (inactive) in test [14]; 15.8 µM (inactive) in [15]; 18.8 µM (inactive) in test [16]; 12.1 µM (inactive) in test [18]; 18.4 µM (inactive) in test [19]. Moreover, the GI50 in test [20] was 16.7 µM (inactive).
As to `COc1cc(O)c2c(c1)OCC(Cc1ccc(O)cc1)C2=O` (stereo not given), the GI50 in test [1] was 45.4 µM (inactive); in [2] it was > 100 µM (inactive); in test [3] it was 45.7 µM (inactive); in test [4], 65.5 µM (inactive); in [5] it was > 100 µM (inactive); in [6], > 100 µM (inactive). For the same molecule, the GI50 in test [7] was > 100 µM (inactive); in test [8] it was > 100 µM (inactive); in test [9], 94.8 µM; in test [11] it was > 100 µM (inactive); in test [12] it was > 100 µM (inactive); in [13] it was > 100 µM (inactive). For the same molecule, the GI50 in test [14] is 51.1 µM (inactive); in test [15], > 100 µM (inactive); in test [16], 36.1 µM (inactive); in test [17] it was > 100 µM (inactive); in test [18], > 100 µM (inactive); in test [19] it was > 100 µM (inactive). In addition, in test [20], the GI50 was 60.4 µM (inactive).
With `Cn1c(-c2ccccc2)cc(-c2ccc3c(c2)OCO3)c1-c1ccsc1`, the GI50 in test [1], in test [2], in test [3], in test [4], in [5] and in [6] was > 100 µM (inactive) in each case. Moreover, the GI50 in test [7] was > 100 µM (inactive); in [8], > 100 µM (inactive); in test [9] it was over 100 µM; in [10], > 100 µM (inactive); in test [11] it was > 100 µM (inactive); in test [12], 52.8 µM (inactive). Besides, the GI50 in test [13], in test [14], in [15], in test [16], in [17] and in test [18] was > 100 µM (inactive) in each case. Also, in test [20], the GI50 is > 100 µM (inactive).
With `COc1cc2c[n+]3c4c(c2c(OC)c1OC)CCCC4CC3` (stereo not given), the GI50 is 27.9 µM (inactive) in test [1]; > 100 µM (inactive) in test [2]; 9.2 µM (inactive) in [3]; > 100 µM (inactive) in [4]; > 100 µM (inactive) in test [5]; > 100 µM (inactive) in [6]. In addition, the GI50 was > 100 µM (inactive) in [7]; > 100 µM (inactive) in test [8]; over 100 µM in test [9]; > 100 µM (inactive) in test [10]; 34.8 µM (inactive) in test [12]; > 100 µM (inactive) in test [13]. In addition, the GI50 in [14], in test [15], in test [16], in test [17], in [18] and in [19] was > 100 µM (inactive) each time. Moreover, the GI50 in test [20] was 66.5 µM (inactive).
As to `COc1ccc(-n2c(N)c(C#N)c(C#N)c2-c2ccco2)cc1`, the GI50 in test [1] was 47.9 µM (inactive); in [2] it was > 100 µM (inactive); in test [3], 39.7 µM (inactive); in test [4], > 100 µM (inactive); in test [5], > 100 µM (inactive); in test [6] it was > 100 µM (inactive). For the same molecule, the GI50 in test [7] was > 100 µM (inactive); in test [8] it was > 100 µM (inactive); in test [9] it was over 100 µM; in test [10], 5.01 µM (inactive); in [11] it was > 100 µM (inactive); in test [12] it was > 100 µM (inactive). In addition, the GI50 in test [13] is > 100 µM (inactive); in [14] it was > 100 µM (inactive); in [15], 46.7 µM (inactive); in [16], > 100 µM (inactive); in [18], 38.5 µM (inactive); in test [19] it was 75.2 µM (inactive). Also, the GI50 in [20] was > 100 µM (inactive).
Regarding `CCOC(=O)C1c2[nH]c3ccccc3c2CCN1C(=O)c1ccco1` (stereo not given), the GI50 in [1], in test [2], in test [3], in test [4], in test [5] and in [6] was > 10 µM (inactive) in each case. Moreover, the GI50 is > 10 µM (inactive) in [7]; > 10 µM (inactive) in test [8]; over 10 µM in test [9]; > 10 µM (inactive) in test [10]; > 10 µM (inactive) in [11]; > 10 µM (inactive) in test [14]. Moreover, the GI50 was > 10 µM (inactive) in test [15]; 9.73 µM (inactive) in [16]; > 10 µM (inactive) in test [18]; > 10 µM (inactive) in test [19]; > 10 µM (inactive) in [20].
With `Cc1nc(O)nc(NNCc2ccc(Cl)cc2)c1C(=O)Nc1ccc(Cl)cc1`, the GI50 in test [1], in test [3], in test [4], in [5], in [7] and in test [8] was > 100 µM (inactive) each time. Also, the GI50 in test [9] is 50.1 µM; in test [11], > 100 µM (inactive); in test [12] it was > 100 µM (inactive); in test [13], > 100 µM (inactive); in [14], > 100 µM (inactive); in test [15], > 100 µM (inactive). Besides, the GI50 in test [16] is > 100 µM (inactive); in test [17], > 100 µM (inactive); in test [18] it was 3.69 µM (inactive); in [19], > 100 µM (inactive); in [20], > 100 µM (inactive).
Consider `OC1OC(c2ccco2)C(F)(F)C(F)(F)C1(F)F` (stereo not given), for which the GI50 in test [1] is 46.2 µM (inactive); in test [2], 23.3 µM (inactive); in test [3], 18.2 µM (inactive); in test [4], 39.8 µM (inactive); in test [5] it was > 100 µM (inactive); in [6], > 100 µM (inactive). Besides, the GI50 in test [7] was 61.5 µM (inactive); in test [8], > 100 µM (inactive); in test [9] it was 90.4 µM; in test [10] it was 81.7 µM (inactive); in [11], > 100 µM (inactive); in test [13], > 100 µM (inactive). The GI50 in test [14] was 68.7 µM (inactive); in test [16], > 100 µM (inactive); in test [17] it was > 100 µM (inactive); in [18] it was > 100 µM (inactive); in test [19] it was > 100 µM (inactive); in test [20] it was > 100 µM (inactive).
